Reference: US8957097B2, “Hemi-phorboxazole A derivatives and methods of their use” (The Trustees Of The University Of Pennsylvania, priority 2009, dated 2015)
Converted amounts (≈) assume the structure as drawn. Like-named read-outs stand apart in the source and are kept apart here.

Legend:
[1] = tested on: National Cancer Institute's panel of 60 human tumor cell lines; conditions: mean over NCI panel of 60 human tumor cell lines; cited from earlier work
HCT-116 Colon = experiment: tumor cell growth inhibitory activity, HCT-116 colon; type: cell-based, human; conditions: for IC50: Homo sapiens
Procedure: (§1) Compounds of the invention were assayed for tumor cell growth inhibitory activity, in parallel with (+) phorboxazole A (1) hemi-phorboxazole A (3).

C. albicans ACTCC 14503 = experiment: antifungal microbroth dilution assay, C. albicans ACTCC 14503; type: cell-based, Candida albicans; conditions: for MIC: Candida albicans
Procedure: (§2) Tests of antifungal activity in microbroth dilution assay against pathogenic Candida strains was performed according to known methods. (National Committee for Clinical Laboratory Standards, 2002. Reference method for broth dilution antifungal susceptibility testing of yeast, 2nd ed. Approved standard M27-A2. National Committee for Clinical Laboratory Standards, Wayne, Pa.). For strains see: Mulder, R. J.; Shafer, C. M.; Dalisay, D. S.; Molinski, T. F. Bioorg. Med. Chem. Lett. 2009, 19, 2928-2930.

C. albicans UCD-FR1 = experiment: antifungal microbroth dilution assay, C. albicans UCD-FR1; type: cell-based, Candida albicans; conditions: for MIC: Candida albicans
Procedure: as §2

C. albicans 96-489 = experiment: antifungal microbroth dilution assay, C. albicans 96-489; type: cell-based, Candida albicans
Procedure: as §2

SK-BR-3 Breast = experiment: tumor cell growth inhibitory activity, SK-BR-3 breast; type: cell-based, human; conditions: for IC50: Homo sapiens
Procedure: as §1

[2] = Table 6, HCT-116 colon tumor cells
[3] = Table 5, HCT-116 colon tumor cells
[4] = Table 6, SK-BR-3 breast tumor cells

Compound	HCT-116 Colon IC50 (HCT-116 Colon; [2]) [mg/L]	C. albicans ACTCC 14503 MIC (C. albicans ACTCC 14503; Table 8, microbroth dilution) [mg/L]	C. albicans UCD-FR1 MIC (C. albicans UCD-FR1; Table 8, microbroth dilution) [mg/L]	C. albicans 96-489 MIC (C. albicans 96-489; Table 8, microbroth dilution) [mg/L]	other results
C=C1C[C@@H]2C[C@H]3C[C@@H](O)C[C@H](O3)c3coc(n3)/C=C\C[C@H]3O[C@@H](/C(C)=C/c4coc(C[C@]5(O)C[C@H](OC)C[C@H]([C@H](O)/C=C(C)/C=C/[C@@H](C/C=C/Br)OC)O5)n4)[C@H](C)[C@@H](OC(=O)/C=C\C[C@@H](C1)O2)[C@H]3C [Compound 2, Phorboxazole B]					GI50 [1]: 1.58 nM
C=C1C[C@@H]2C[C@@H]3CCO[C@@H](O3)c3cccc(c3)/C=C/C[C@H]3O[C@@H](/C(C)=C/c4ncco4)[C@H](C)[C@@H](OC(=O)/C=C\C[C@@H](C1)O2)[C@H]3C [Compound 27]	5.44	4	8	32	
C=C1C[C@@H]2C[C@@H]3CCO[C@@H](O3)c3cccc(c3)/C=C/C[C@H]3O[C@@H](/C(C)=C/c4cccs4)[C@H](C)[C@@H](OC(=O)/C=C\C[C@@H](C1)O2)[C@H]3C [Compound 28]	5.96	8	16	32	
C=C1C[C@@H]2C[C@@H]3CCO[C@@H](O3)c3coc(n3)/C=C/C[C@H]3O[C@@H](/C(C)=C/C#N)[C@H](C)[C@@H](OC(=O)/C=C/C[C@@H](C1)O2)[C@H]3C [Compound (E, E)-5]					HCT-116 Colon IC50 (HCT-116 Colon; [3]): 1.54 mg/L; C. albicans ACTCC 14503 MIC (C. albicans ACTCC 14503; Table 7, microbroth dilution): 4 mg/L; C. albicans UCD-FR1 MIC (C. albicans UCD-FR1; Table 7, microbroth dilution): 8 mg/L; C. albicans 96-489 MIC (C. albicans 96-489; Table 7, microbroth dilution): 32 mg/L
C=C1C[C@@H]2C[C@@H]3CCO[C@@H](O3)c3cccc(c3)/C=C/C[C@H]3O[C@@H](/C(C)=C/C#N)[C@H](C)[C@@H](OC(=O)/C=C/C[C@@H](C1)O2)[C@H]3C [Compound (E, E)-6]	>6.25	>64	>64	>64	
C=C1C[C@@H]2C[C@@H]3CCO[C@@H](O3)c3coc(n3)/C=C/C[C@H]3O[C@@H](/C(C)=C/I)[C@H](C)[C@@H](OC(=O)/C=C/C[C@@H](C1)O2)[C@H]3C [Compound (E, E)-15]					HCT-116 Colon IC50 (HCT-116 Colon; [3]): >6.25 mg/L; C. albicans ACTCC 14503 MIC (C. albicans ACTCC 14503; Table 7, microbroth dilution): >64 mg/L; C. albicans UCD-FR1 MIC (C. albicans UCD-FR1; Table 7, microbroth dilution): >64 mg/L; C. albicans 96-489 MIC (C. albicans 96-489; Table 7, microbroth dilution): >64 mg/L
C=C1C[C@@H]2C[C@@H]3CCO[C@@H](O3)c3cccc(c3)/C=C/C[C@H]3O[C@@H](/C(C)=C/I)[C@H](C)[C@@H](OC(=O)/C=C/C[C@@H](C1)O2)[C@H]3C [Compound (E, E)-24]	>6.25	>64	>64	>64	
C=C1C[C@@H]2C[C@@H]3CCO[C@@H](O3)c3cccc(c3)/C=C\C[C@H]3O[C@@H](/C(C)=C/C#N)[C@H](C)[C@@H](OC(=O)/C=C/C[C@@H](C1)O2)[C@H]3C [Compound (E, Z)-6]	>6.25	>64	>64	>64	
C=C1C[C@@H]2C[C@@H]3CCO[C@@H](O3)c3cccc(c3)/C=C\C[C@H]3O[C@@H](/C(C)=C/I)[C@H](C)[C@@H](OC(=O)/C=C/C[C@@H](C1)O2)[C@H]3C [Compound (E, Z)-24]	>6.25	>64	>64	>64	
C=C1C[C@@H]2C[C@@H]3CCO[C@@H](O3)c3coc(n3)/C=C/C[C@H]3O[C@@H](/C(C)=C/C#N)[C@H](C)[C@@H](OC(=O)/C=C\C[C@@H](C1)O2)[C@H]3C [Compound (Z, E)-5]					HCT-116 Colon IC50 (HCT-116 Colon; [3]): >6.2 mg/L; SK-BR-3 Breast IC50 (SK-BR-3 Breast; Table 5, SK-BR-3 breast tumor cells): >6.2 mg/L; C. albicans ACTCC 14503 MIC (C. albicans ACTCC 14503; Table 7, microbroth dilution): 16 mg/L; C. albicans UCD-FR1 MIC (C. albicans UCD-FR1; Table 7, microbroth dilution): 16 mg/L; C. albicans 96-489 MIC (C. albicans 96-489; Table 7, microbroth dilution): >64 mg/L
C=C1C[C@@H]2C[C@@H]3CCO[C@@H](O3)c3cccc(c3)/C=C/C[C@H]3O[C@@H](/C(C)=C/C#N)[C@H](C)[C@@H](OC(=O)/C=C\C[C@@H](C1)O2)[C@H]3C [Compound (Z, E)-6]	0.207				SK-BR-3 Breast IC50 (SK-BR-3 Breast; [4]): 0.258 mg/L
C=C1C[C@@H]2C[C@@H]3CCO[C@@H](O3)c3coc(n3)/C=C/C[C@H]3O[C@@H](/C(C)=C/I)[C@H](C)[C@@H](OC(=O)/C=C\C[C@@H](C1)O2)[C@H]3C [Compound (Z, E)-15]					HCT-116 Colon IC50 (HCT-116 Colon; [3]): >6.25 mg/L; C. albicans ACTCC 14503 MIC (C. albicans ACTCC 14503; Table 7, microbroth dilution): >64 mg/L; C. albicans UCD-FR1 MIC (C. albicans UCD-FR1; Table 7, microbroth dilution): >64 mg/L; C. albicans 96-489 MIC (C. albicans 96-489; Table 7, microbroth dilution): >64 mg/L
C=C1C[C@@H]2C[C@@H]3CCO[C@@H](O3)c3cccc(c3)/C=C/C[C@H]3O[C@@H](/C(C)=C/I)[C@H](C)[C@@H](OC(=O)/C=C\C[C@@H](C1)O2)[C@H]3C [Compound (Z, E)-24]	>6.25	>64	>64	>64	
C=C1C[C@@H]2C[C@@H]3C[C@@H](O)C[C@@H](O3)c3coc(n3)/C=C/C[C@H]3O[C@@H](/C(C)=C/C#N)[C@H](C)[C@@H](OC(=O)/C=C\C[C@@H](C1)O2)[C@H]3C [HEMI-PHORBOXAZOLE A, Hemi-Phorboxazole A]	>6.2	>64	>64	>64	IC50 (HCT-116 Colon; HCT-116, read-out: HCT-116 Colon IC50): > 6.2 mg/L; IC50 (SK-BR-3 Breast; SK-BR-3, read-out: SK-BR-3 Breast IC50): > 6.2 mg/L; SK-BR-3 Breast IC50 (SK-BR-3 Breast; [4]): >6.2 mg/L; MIC (C. albicans ACTCC 14503; ACTCC14503, read-out: C. albicans ACTCC 14503 MIC): > 64 mg/L; MIC (C. albicans UCD-FR1; UCDFR1, read-out: C. albicans UCD-FR1 MIC): > 64 mg/L; MIC (C. albicans 96-489; Candida albicans, 96489, read-out: C. albicans 96-489 MIC): > 64 mg/L
C=C1C[C@@H]2C[C@@H]3C[C@@H](O)C[C@@H](O3)c3coc(n3)/C=C/C[C@H]3O[C@@H](/C(C)=C/c4coc(C[C@]5(O)C[C@H](OC)C[C@H]([C@H](O)/C=C(C)/C=C/[C@@H](C/C=C/Br)OC)O5)n4)[C@H](C)[C@@H](OC(=O)/C=C\C[C@@H](C1)O2)[C@H]3C [Phorboxazole A]	0.00071	1.0	2.0	1.0	IC50 (HCT-116 Colon; Table 5, HCT-116 colon tumor cells, read-out: HCT-116 Colon IC50): 0.00071 mg/L (≈ 0.000693 µM); IC50 (SK-BR-3 Breast; Table 5, SK-BR-3 breast tumor cells, read-out: SK-BR-3 Breast IC50): 0.002 mg/L (≈ 0.00195 µM); MIC (C. albicans ACTCC 14503; ACTCC14503, Table 7, microbroth dilution, read-out: C. albicans ACTCC 14503 MIC): 1 mg/L (≈ 0.977 µM); MIC (C. albicans UCD-FR1; UCDFR1, Table 7, microbroth dilution, read-out: C. albicans UCD-FR1 MIC): 2 mg/L (≈ 1.95 µM); MIC (C. albicans 96-489; Candida albicans, 96489, Table 7, microbroth dilution, read-out: C. albicans 96-489 MIC): 1 mg/L (≈ 0.977 µM); GI50 [1]: 1.58 nM
